Measured values published in ChEMBL document CHEMBL1122784, “Antitumor imidazotetrazines. 1. Synthesis and chemistry of 8-carbamoyl-3-(2-chloroethyl)imidazo[5,1-d]-1,2,3,5-tetrazin-4(3 H)-one , a novel broad-spectrum antitumor agent” (J Med Chem, 1984).

What was measured:
Assay type in all cases: ADME
[1] = Half-life period in 95% ethanol in dark at 28 degrees celsius.
[2] = Half-life period in 95% ethanol in diffuse laboratory light at 28 degrees celsius.
[3] = Half-life period in phosphate buffer at pH 7.4 in the dark at 28 degrees celsius.
[4] = Half-life period in 95% ethanol in diffuse laboratory light at 28 degrees celsius

Row | half-life [1] | half-life [2] | half-life [3] | half-life [4] | Compound
1 | 2.6 min |  |  |  | N#Cc1cccc(-n2nnc3c(C(N)=O)ncn3c2=O)c1
2 | 23 min | 9 min |  |  | NC(=O)c1ncn2c(=O)n(-c3ccccc3)nnc12
3 | 155 min | 155 min |  |  | CCCn1nnc2c(C(N)=O)ncn2c1=O
4 | 6.3 min | 8.2 min | 2.9 min |  | NC(=O)c1ncn2c(=O)n(-c3ccc(Cl)cc3)nnc12
5 | 495 min |  |  | 495 min | Cn1nnc2c(C(N)=O)ncn2c1=O [TEMOZOLOMIDE]
6 | 4.6 min |  |  |  | NC(=O)c1ncn2c(=O)n(-c3cccc4ccccc34)nnc12
7 | < 1 min |  |  |  | NC(=O)c1ncn2c(=O)n(-c3ccc([N+](=O)[O-])cc3)nnc12
8 | 40 min | 7.5 min |  |  | Cc1ccc(-n2nnc3c(C(N)=O)ncn3c2=O)cc1
9 | 69 min | 8.5 min | 155 min |  | COc1ccc(-n2nnc3c(C(N)=O)ncn3c2=O)cc1
10 | 78 min | 8 min |  |  | CCOc1ccc(-n2nnc3c(C(N)=O)ncn3c2=O)cc1
